# Measurements published in PMC7081834 (Science (New York, N.Y.), 2019).
# Molecular target: WWP1 (WW domain–containing ubiquitin E3 ligase 1) (Homo sapiens, UniProt Q9H0M0, F577A/Y656A)
# Assay: microscale thermophoresis
# Assay type: binding
# Sequence of WWP1 (WW domain–containing ubiquitin E3 ligase 1) (Q9H0M0 546-922 F577A/Y656A limits assumed): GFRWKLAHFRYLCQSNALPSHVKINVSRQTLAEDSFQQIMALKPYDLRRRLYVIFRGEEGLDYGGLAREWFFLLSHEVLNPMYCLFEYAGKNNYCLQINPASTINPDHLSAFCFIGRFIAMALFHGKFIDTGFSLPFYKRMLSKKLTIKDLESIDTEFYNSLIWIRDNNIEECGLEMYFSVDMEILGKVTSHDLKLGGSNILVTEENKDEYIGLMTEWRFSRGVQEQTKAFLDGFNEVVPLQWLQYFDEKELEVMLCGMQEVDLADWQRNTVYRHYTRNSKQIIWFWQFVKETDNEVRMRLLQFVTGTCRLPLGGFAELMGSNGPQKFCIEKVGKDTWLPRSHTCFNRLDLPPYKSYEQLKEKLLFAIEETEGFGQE
smiles,measurement,value
"OCc1c[nH]c2ccccc12 [I3C, indole-3-carbinol]",Kd,~7.72 µM
